Target: T1, cloned human GLP-1 receptor (Homo sapiens, UniProt P43220)
T1 construct: expressed in transfected cells; host or cells: CHO or HEK-293 cells
Assay: Functional cell-based assay: cAMP functional assay
Details: for Emax: 0.5 h, percentage relative to maximal GLP-1-induced cAMP accumulation, na = not active in the assay, read-out: % activation
Procedure, shortened: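 Monolayer cells incubated 30 min at 37 °C with compounds (0.0001–100 μM) in IMDM containing 100 μM RO 20-1724 PDE inhibitor, 0.1% BSA and 2% DMSO. cAMP measured by HTRF.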

T1 sequence (P43220 24-463): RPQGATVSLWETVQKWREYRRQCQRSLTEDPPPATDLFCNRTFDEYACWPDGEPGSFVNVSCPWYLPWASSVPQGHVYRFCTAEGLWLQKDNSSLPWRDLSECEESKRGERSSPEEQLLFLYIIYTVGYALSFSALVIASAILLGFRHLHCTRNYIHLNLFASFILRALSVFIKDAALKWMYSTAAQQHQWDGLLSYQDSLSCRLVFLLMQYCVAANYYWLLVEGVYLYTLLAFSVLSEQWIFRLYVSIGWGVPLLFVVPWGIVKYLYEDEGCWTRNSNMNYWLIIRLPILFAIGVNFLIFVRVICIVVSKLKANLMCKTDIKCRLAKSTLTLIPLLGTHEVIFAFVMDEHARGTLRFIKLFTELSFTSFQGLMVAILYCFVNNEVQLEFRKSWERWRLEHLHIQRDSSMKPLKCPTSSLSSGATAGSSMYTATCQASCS

Row | SMILES | EC50 [nM] | Emax [%]
1 | CN1C(=O)C(c2ccc(OCc3ccc(Cl)c(Cl)c3)cc2)Oc2cc3c(cc21)C[C@@H](C(=O)N[C@@H](Cc1ccc(-c2ccc(C#N)cc2)cc1)C(=O)O)N(CC1(c2ccccc2)CCCC1)C3 (stereo partly drawn) [Example 77, (S)-3-(4′-Cyano-biphenyl-4-yl)-2-{[(S)-3-[4-(3,4-dichloro-benzyloxy)-phenyl]-1-methyl-2-oxo-6-(1-phenyl-cyclopentylmethyl)-2,3,5,6,7,8-hexahydro-1H-4-oxa-1,6-diaza-anthracene-7-carbonyl]-amino}-propionic acid] | 1710 | 53
2 | CC[C@@H](c1ccccc1)N1Cc2cc3c(cc2C[C@H]1C(=O)N[C@@H](Cc1ccc(-c2ccc(Cl)cc2)cc1)C(=O)O)N(C)C(=O)[C@@H](c1ccc(OCc2ccc(Cl)c(Cl)c2)cc1)O3 [Example 90, (S)-3-(4′-Chloro-biphenyl-4-yl)-2-{[(3R,7S)-3-[4-(3,4-dichloro-benzyloxy)-phenyl]-1-methyl-2-oxo-6-((S)-1-phenyl-propyl)-2,3,5,6,7,8-hexahydro-1H-4-oxa-1,6-diaza-anthracene-7-carbonyl]-amino}-propionic acid] | 1230 | 43
3 | N#Cc1ccc(-c2ccc(C[C@H](NC(=O)[C@@H]3Cc4cc5c(cc4CN3CC3CC3)OC(c3ccc(OCc4ccc(Cl)c(Cl)c4)cc3)C(=O)N5)C(=O)O)cc2)cc1 (stereo partly drawn) [Example 54, (S)-3-(4′-Cyano-biphenyl-4-yl)-2-({(S)-6cyclopropylmethyl-3-[4-(3,4-dichloro-benzyloxy)-phenyl]-2-oxo-2,3,5,6,7,8-hexahydro-1H-4-oxa-1,6-diaza-anthracene-7-carbonyl}-amino)-propionic acid] | 1080 | 11.8
4 | N#Cc1ccc(-c2ccc(C[C@H](NC(=O)[C@@H]3Cc4cc5c(cc4CN3C(=O)c3cccnc3)OC(c3ccc(OCc4ccc(Cl)c(Cl)c4)cc3)C(=O)N5)C(=O)O)cc2)cc1 (stereo partly drawn) [Example 4, (S)-3-(4′-Cyano-biphenyl-4-yl)-2-{[(S)-3-[4-(3,4-dichloro-benzyloxy)-phenyl]-2-oxo-6-(pyridine-3-carbonyl)-2,3,5,6,7,8-hexahydro-1H-4-oxa-1,6-diaza-anthracene-7-carbonyl]-amino}-propionic acid] | 3800 | 20
5 | N#Cc1ccc(-c2ccc(C[C@H](NC(=O)[C@@H]3Cc4cc5c(cc4CN3C(=O)[C@H]3CCCO3)OC(c3ccc(OCc4ccc(Cl)c(Cl)c4)cc3)C(=O)N5)C(=O)O)cc2)cc1 (stereo partly drawn) [Example 6, (S)-3-(4′-Cyano-biphenyl-4-yl)-2-{[(S)-3-[4-(3,4-dichloro-benzyloxy)-phenyl]-2-oxo-6-((R)-tetrahydro-furan-2-carbonyl)-2,3,5,6,7,8-hexahydro-1H-4-oxa-1,6-diaza-anthracene-7-carbonyl]-amino}-propionic acid] | 3600 | 7
6 | COc1ccccc1CN1Cc2cc3c(cc2C[C@H]1C(=O)N[C@@H](Cc1ccc(-c2ccc(C#N)cc2)cc1)C(=O)O)NC(=O)C(c1ccc(OCc2ccc(Cl)c(Cl)c2)cc1)O3 (stereo partly drawn) [Example 43, (S)-3-(4′-Cyano-biphenyl-4-yl)-2-{[(S)-3-[4-(3,4-dichloro-benzyloxy)-phenyl]-6-(2-methoxy-benzyl)-2-oxo-2,3,5,6,7,8-hexahydro-1H-4-oxa-1,6-diaza-anthracene-7-carbonyl]-amino}-propionic acid] | 500 | 34
7 | CC[C@@H](c1ccccc1)N1Cc2cc3c(cc2C[C@H]1C(=O)N[C@@H](Cc1ccc(-c2ccc(C#N)cc2)cc1)C(=O)O)N(C)C(=O)[C@@H](c1ccc(OCc2ccc(Cl)c(Cl)c2)cc1)O3 [Example 86, (S)-3-(4′-Cyano-biphenyl-4-yl)-2-{[(3R,7S)-3-[4-(3,4-dichloro-benzyloxy)-phenyl]-1-methyl-2-oxo-6-((S)-1-phenyl-propyl)-2,3,5,6,7,8-hexahydro-1H-4-oxa-1,6-diaza-anthracene-7-carbonyl]-amino}-propionic acid] | 59.3 | 58

From patent US7906507B2, “Oxadiazoanthracene compounds for the treatment of diabetes” (TransTech Pharma, Inc., priority 2008, dated 2011)
